Assays:
Format in all cases: physicochemical
[1] = Oxidation of CLA methyl ester in open test tube, GLC composition; conditions: for relative content, Day 0: CLA methyl ester sample before oxidation; for relative content, Day 115: open test tube, 115 days, room temperature, free access to air
Method: This example describes the oxidation of CLA exposed to open air. A small sample of methyl ester was prepared and stored in an open test tube for 115 days at room temperature with free access to air. […] A chromatogram of the same sample was also run on a polar column. The results indicated the presence of a large number of short chain polar components (i.e., breakdown products).

[2] = Peroxide value (PV), colorimetric ferric thiocyanate method; conditions: after storage in open glass
Description: The present invention is not limited to any one mechanism. Indeed, an understanding of the mechanism of the invention is not necessary to produce the composition or perform the methods of the present invention.

[3] = Oil stability index (OSI) of CLA triacylglyceride with added antioxidants; conditions: antioxidant added to CLA triacylglyceride, 0-0.1 %
Method: In some embodiments, oxidation of CLA is prevented by the addition of metal oxidant chelators or peroxide scavengers to the finished product. In some embodiments, the amount of oxidation is measured by the oil stability index (OSI). The OSI (See e.g., AOCS official method Cd 12b-92) is a measurement of an oil's resistance to oxidation. It is defined mathematically as the time of maximum change of the rate of oxidation. This rate can be determined mathematically. Experimentally, the OSI is calculated by measuring the change in conductivity of deionized water is which volatile organic acids (oxidation products) are dissolved. When performing OSI measurements, it is important to avoid contamination by trace amounts of metals, which can accelerate the oxidation process. This is generally accomplished by careful washing of all glassware used with a cleaning solution lacking chromate or surfactants. Water must be deionized and all solvents must be of a highly purified grade. […]
The oxygen stability index (OSI) was measured using a method known in the art (AOCS official method Cd 12b-92 using an OSI apparatus from Omnion Instruments). […] The conductivity of the water is continually monitored over time. The OSI (the point of maximum change of the rate of oxidation) is determined mathematically. […]

Structure (SMILES)	relative content, Day 0 [1]	relative content, Day 115 [1]	peroxide values (PV) [2]	increase of the OSI value by addition of antioxidant [3]
CCCCCCCC/C=C/CCCCCCCC(=O)O [C18:1, t9]	0	0.33		
CCCCC/C=C\C=C/CCCCCCCCC(=O)O [CLA, c10, c12, c10,c12 octadecadienoic acid]	0.09	0		
CCCCC/C=C\C=C\CCCCCCCCC(=O)O [CLA, t10, c12, t10,c12-octadecadienoic acid]	7.63	0		
CCCCCCCC/C=C\CCCCCCCC(=O)O [C18:1, c9, oleic acid]	4.14	3.19		
CCCCC/C=C\C/C=C\CCCCCCCC(=O)O [linoleic acid]			370	
CCCCCC/C=C\CCCCCCCCCC(=O)O [C18:1, c11]	0.13	0.10		
CCCCCC/C=C/C=C\CCCCCCCC(=O)O [CLA, c9, t11, c9,t11-octadecadienoic]	7.68	0		
Cc1c(C)c2c(c(C)c1O)CC[C@@](C)(CCC[C@H](C)CCC[C@H](C)CCCC(C)C)O2 [alpha-tocopherol]				did not significantly increase
CCCCCC/C=C\C=C/CCCCCCCC(=O)O [CLA, c9, c11]	0.11	0		
CCCCCCCCCCCCCCCC(=O)O [C 16:0, palmitic acid]	1.36	1027		
CCCCC/C=C\C/C=C\CCCCCCCC(=O)O [C18:2, c9, c12, 9,12-linoleic acid]	0.06	0.03		

From patent US6524527B2 (Natural Corporation, priority 1998, dated 2003)
